Common to all, as to type: cell-based
Test [1] relates to Trichophyton rubrum. Nature of the test: In vitro antifungal drug sensitivity test (microdilution method), Trichophyton rubrum. The conditions noted are these: for MIC: read-out: Antifungal activity MIC. The text has this:
(§1) A microdilution method (Pierce C G, Uppuluri P, Tristan A R, et al. A simple and reproducible 96-well plate-based method for the formation of fungal biofilms and its application to antifungal susceptibility testing [J]. Nat Protoc, 2008, 3 (9): 1494-1500.) is adopted, and its experimental procedure refers to the M38-A2 and M27-A2 solutions (Espinel-Ingroff A, Fothergill A, Fuller J, et al. Wild-type MIC distributions and epidemiological cutoff values for caspofungin and Aspergillus Spp. for the CLSI broth microdilution method (M38-A2 document) [J]. Antimicrobl Agents Chemother, 2011, 55 (6): 2855-2859.). Three tested strains (Candida albicans, Trichophyton mentaqrophytes and Trichophyton rubrum) are used as indicator bacteria to carry out in vitro antifungal drug sensitivity screening experiment for the compounds AAP-1-AAP6.
(§2) Control drugs: ketoconazole (purchased from Shanghai Boliang Biotechnology Co., Ltd.), Aaptamine (same as Embodiment 2).
On the technique in general: Dilution methods test growth across graded concentrations, often in twofold steps.

Test [2] deals with Trichophyton mentaqrophytes. The test can be described thus: In vitro antifungal drug sensitivity test (microdilution method), Trichophyton mentaqrophytes. The settings on record: for MIC: Trichophyton, read-out: Antifungal activity MIC.
Description: as §1, §2

Test [3] deals with Candida albicans. Nature of the test: In vitro antifungal drug sensitivity test (microdilution method), Candida albicans. The conditions noted are these: for MIC: read-out: Antifungal activity MIC.
Description: as §1, §2

Test [4] relates to human lung cancer stem cell PC9-Nanog. Nature of the test: In vitro anti-lung cancer stem cell test (CCK-8 cell viability), PC9-Nanog. The conditions noted are these: read-out: Half effective inhibitory concentration IC50 against tumor cells. As for the experimental part: (§3) In vitro anti-lung cancer stem cell test is carried out on the compounds AAP-1-6 of the present invention, and the lung cancer stem cell lines used are as follows:
(§4) Human lung cancer cell PC9 is purchased from ATCC with ATCC number 32727.
(§5) In addition, Oct4-GFP and Nanog-GFP are highly expressed by lentivirus transfection.
(§6) The original cell culture medium for Human lung cancer stem cells PC9-Nanog and PC9-Oct4 is discarded, 3 mL of PBS is added to rinse the cells twice; 500 μL of 0.25% trypsin is then added for digestion for 3 minutes at 37° C.; and 3 mL of a complete medium is added to terminate the digestion. The cells are pipetted gently with a pipette to make a single cell suspension; the single cell suspension is transferred to a 15 mL centrifuge tube and centrifuged at 800 rpm for 4 minutes; the supernatant is discarded, 6 mL of a complete medium is added to the centrifuge tube, and mixed by pipetting; counting is carried out to prepare […] single cell suspension; the suspension is added to a 96-well plate, 90 μL per well, (wells at the outer ring are not added with the suspension), and finally each well has 3000 cells; and the 96-well plate is incubated for 24 hours in a 37° C., 5% CO2 incubator.
(§7) 1 mg of each of the compounds AAP-1, AAP-2, AAP-3, AAP-4, AAP-5, and AAP-6 of the present invention is prepared into a 10 mM stock solution by using DMSO, and stored in a refrigerator with a temperature of 4° C. Thereafter, the stock solution is diluted with a medium to a 10 μM test solution. The final concentration is 10 μM in a 96-well plate, and the test solution is diluted three folds and added to the plate. Finally, the concentrations of the test solutions of the compounds of the present invention added to the plate are 10 μM, 3.3 μM, 1.1 μM, and 0.33 μM, respectively. The 96-well plate added with the compounds is incubated for 72 hours in a 37° C., 5% CO2 incubator. 72 hours later, 10 μL of CCK-8 solution is added to each well. 40 minutes to 60 minutes later, the absorbance at 450 nm, i.e., the OD value, is measured with a microplate reader. Cell viability is calculated after measuring the OD value of each group of cells. Cell viability (%)=(OD value of the treated group−OD value of the blank group)/(OD value of the blank control group−OD value of the blank group)×100%
(§8) The blank control group is not added with the compounds of the present invention, and the other steps are the same.
(§9) Meanwhile, the positive control drugs Cis-platinum (Shanghai Boliang Biotechnology Co., Ltd.) and Aaptamine (Reference: Enrique L. Larghi, Maria L. Bohn, Teodoro S. Kaufman, Aaptamine and related products. Their isolation, chemical syntheses, and biological activity, Tetrahedron 2009, 65 (22), 4257-4282 synthesis) are used as control groups for in vitro anti-tumor activity test, and the treatment method herein is the same as that for the compounds of the present invention.

Test [5] deals with human lung cancer stem cell PC9-Oct4. The test can be described thus: In vitro anti-lung cancer stem cell test (CCK-8 cell viability), PC9-Oct4. The settings on record: read-out: Half effective inhibitory concentration IC50 against tumor cells. As for the experimental part: as §3, §4, §5, §6, §7, §8, §9
Where [6] appears, read: Trichophyton mentaqrophytes, microdilution.
[7] abbreviates: Homo sapiens, 72 h, PC9-Nanog cells, 72 hours incubation, CCK-8.
Where [8] appears, read: Homo sapiens, 72 h, PC9-Oct4 cells, 72 hours incubation, CCK-8.
The mark [9] stands for this setting: PC9-Nanog cells, 72 hours incubation, CCK-8.
Where [10] appears, read: PC9-Oct4 cells, 72 hours incubation, CCK-8.

Results on six compounds are retold here after patent US10799495B2, “Aaptamine alkaloid derivatives and synthesis method and application thereof” (RENJI HOSPITAL, SHANGHAI JIAO TONG UNIVERSITY SCHOOL OF …, priority 2017, dated 2020).

In brackets after ≈: the same amount, converted by molar mass. Read-outs that look alike come from different tables or passages of the source.

As for `COc1cc2ccnc3c2c(c1OC)NC=C3c1ccccc1` [AAP-1, 8,9-dimethoxy-3-phenyl-1H-benzo[de][1,6]naphthyridine], the minimum inhibitory concentration (MIC) was 12.5 mg/L (≈ 41.1 µM) in test [1] (microdilution), 25 mg/L (≈ 82.1 µM) in test [2] (setting [6]) and over 30 mg/L in test [3] (microdilution). Further, the IC50 was 1.24 ± 0.02 µM in test [4] (setting [7]) and 1.04 ± 0.11 µM in test [5] (setting [8]).
For `COc1c(OC)c2c3c(nccc3c1-c1ccccc1)C=CN2` [AAP-2, 8,9-dimethoxy-7-phenyl-1H-benzo[de][1,6]naphthyridine] the same measures were 25 mg/L (≈ 82.1 µM), 25 mg/L (≈ 82.1 µM), over 30 mg/L, 6.82 ± 0.16 µM and 7.22 ± 0.04 µM.
`COc1c(OC)c2c3c(nccc3c1-c1cccc(C(C)C)c1)C(c1cccc(C(C)C)c1)=CN2` [AAP-6, 3,7-bis(3-isopropyphenyl)-8,9dimethoxy-1H-benzo[de][1,6] naphthyridine]: the results for the “Antifungal activity MIC” value in test [1] (microdilution), in test [2] (setting [6]) and in test [3] (microdilution) were over 30 mg/L, over 30 mg/L and 25 mg/L, respectively. The values for the IC50 in test [4] (setting [9]) and in test [5] (setting [10]) were 4.82 ± 0.12 µM and 3.82 ± 0.15 µM, respectively.
On to `COc1cc2ccnc3c2c(c1OC)NC=C3` [Aaptamine], for which the “Antifungal activity MIC” value in test [1] (microdilution) is over 30 mg/L. For the same compound, the MIC in test [1], in test [2] and in test [3] was over 30 mg/L in each case. The IC50 came out at 10.1 ± 0.17 µM in test [4] (Homo sapiens, 72 h) and 8.44 ± 0.1 µM in test [5] (Homo sapiens, 72 h).
As for `N.N.[Cl][Pt][Cl]` [Cis-platinum, reference compound], the IC50 in test [4] (setting [9]) is 4.53 ± 0.03 µM; in test [5] (setting [10]), 3.24 ± 0.05 µM.
As for `CC(=O)N1CCN(c2ccc(OCC3COC(Cn4ccnc4)(c4ccc(Cl)cc4Cl)O3)cc2)CC1` (centres unmarked) [Ketoconazole, ketoconazole, reference compound], the MIC in test [1] (microdilution), in test [2] (setting [6]) and in test [3] (microdilution) was 8 mg/L (≈ 15.1 µM) in each case.

By MIC is commonly meant the lowest concentration that inhibits growth of the organism.
